We go through 2 compounds from patent publication US20130143894A1 (vadel Pharma Inc., priority 2010, published 2013).

SMILES strings stand for the structures. Structures can show the parent of a compound that is named as a salt.

Series [1] can be described thus: Safety / tolerability in the relative bioavailability study. The note with it: oral spray doses of 10 mg, 20 mg, 30 mg and single oral dose of 25 mg (1×25 mg tablet), healthy adult subjects, under fed conditions. Type of series: in vivo, human. As to the method:
Assessments include evaluation of changes in orthostatic hypotension, oral irritation, vital sign assessments, 12-lead electrocardiogram (ECG), and clinical assessments.
After dosing, the following activities were completed: • Both objective and subjective oral irritation assessments were performed immediately after dosing and at one hour after dose administration. • A fast was maintained until at least four hours after dosing. During the study confinement period, fluid consumption resumed no sooner than one hour after dose administration. […]
• Blood sample collections were obtained as per the profile. • Supine and standing blood pressure and heart rate was measured at approximately 24 hours after each dose. • All subjects were evaluated for the presence of any adverse events prior to release from the study site. • Prior to release, subjects were evaluated to ensure it was safe for them to be released from the study site. • Subjects were released from the study site at approximately 24 hours after dose administration.

The conditions of series [2]: cited from earlier work.

In the case of `CCCc1nn(C)c2c(=O)[nH]c(-c3cc(S(=O)(=O)N4CCN(C)CC4)ccc3OCC)nc12` [sildenafil citrate], in series [1], the tolerability result is “well tolerated”.

As for `CCCc1nn(C)c2c(=O)[nH]c(-c3cc(S(=O)(=O)N4CCN(C)CC4)ccc3OCC)nc12` [sildenafil, 1-[[3-(6,7-dihydro-1-methyl-7-oxo-3-propyl-1H-pyrazolo[4,3-d]pyrimidin-5-yl)-4-ethoxyphenyl]sulfonyl]-4-methylpiperazine], the absolute bioavailability in series [2] (after oral administration (tablet)) was 41%. Besides, the “mean steady state volume of distribution (Vss)” value in series [2] (in vivo) is on record as 105 L.
